Results from PMC6100415, “Hepatic Metabolism of Sakuranetin and Its Modulating Effects on Cytochrome P450s and UDP-Glucuronosyltransferases” (Molecules : A Journal of Synthetic Chemistry and Natural …, 2018).

Assays:
[1] = UDPGA-dependent metabolic stability in rat liver microsomes; type: in vitro ADME; settings: for CLint scaled at 100 µM: read-out: CLint, hepatic; for half-life at 100 µM: rat, pH 7.4, rat liver microsomes
Procedure: (§1) Metabolic stability was measured by monitoring the amount of parent compound that remained in an incubation mixture at designated incubation time points. For the phase I metabolism study, SKN (100 μM) was incubated with liver microsomes (1 mg/mL, rat, mouse, and dog; and 0.5 mg/mL, human), and an NADPH-generation cocktail consisting of nicotinamide adenine dinucleotide phosphate (NADP^+, 1 mM), glucose-6-phosphate (5 mM), glucose-6-phosphate dehydrogenase (1 unit/mL), and MgCl2 (10 mM) in potassium phosphate buffer (0.1 M, pH 7.4) in a total volume of 1 mL. To study phase II glucuronide conjugative metabolism, uridine 5′-diphosphoglucuronic acid (UDPGA) (2 mM) was added as a cofactor. The mixture was incubated in a shaking water bath, and the enzyme reaction was initiated by the addition of NADP^+, UDPGA, or both. Aliquots (100 μL) were removed at 0, 5, 15, 30, 45, and 60 min, and the reaction was terminated by adding two volumes of ice-cold methanol. […] The half-life of SKN was obtained by plotting the remaining amount of SKN against time using Prism 3.0 software (GraphPad, La Jolla, CA, USA). Hepatic intrinsic clearance (CLint, hepatic) was calculated using the following formula [20]:CLint, hepatic = (0.693/t1/2) × (g liver weight/kg body weight) × (mL incubation/mg of microsomal protein) × (mg microsomal protein concentration/g of liver)
(§2) The DAD was set at 280 nm.

[2] = UDPGA-dependent metabolic stability in dog liver microsomes; type: in vitro ADME; settings: for Amount Remaining at 30 min (%): dog liver microsomes; for half-life at 100 µM / CLint scaled at 100 µM: dog, liver microsomes, pH 7.4, dog liver microsomes; for CLint scaled at 100 µM: read-out: CLint, hepatic
Procedure: as §1, §2

[3] = UDPGA-dependent metabolic stability in human liver microsomes; type: in vitro ADME; settings: for half-life at 100 µM / CLint scaled at 100 µM: human, pH 7.4, human liver microsomes; for CLint scaled at 100 µM: read-out: CLint, hepatic
Procedure: as §1, §2

CYP2C9 = CYP2C9 (Homo sapiens, UniProt P11712); test: CYP inhibition in human liver microsomes, diclofenac 4′-hydroxylation (DCHY); settings: CYP2C9, DCHY, SKN 10 μM, 15 min pre-incubation
Procedure: The formation of a metabolite from a CYP isozyme-specific phenotyping reaction (Table 4) was monitored. Each substrate (200 μM), along with SKN (10 μM), was incubated with human liver microsomes (0.5 mg/mL) and an NADPH-generating system in 0.1 M potassium phosphate buffer (pH 7.4) at 37 °C for 60 min in a total volume of 200 μL in a shaking water bath. The metabolic reaction was initiated by adding NADP^+ (1 mM) and stopped by adding 10 μL of trichloroacetic acid. In some experiments, the microsomes were pre-incubated with SKN for 15 min prior to the addition of the cofactor, in order to determine the time-dependent inhibitory effect. […] In contrast, co-incubation refers to experiments in which microsomes and cofactors were incubated in the presence of SKN. After centrifugation of incubation samples at 12,000× g for 15 min at 4 °C, the supernatant (20 μL) was injected into an HPLC-DAD system to analyze the metabolites formation (Supplementary Materials).
The DAD was set at 248 nm for phenacetin O-deethylation (PCOD), 298 nm for bupropion hydroxylation (BPHY), 276 nm for diclofenac 4′-hydroxylation (DCHY), 230 nm for tolbutamide 6-hydroxylation (TOLHY), 280 nm for dextromethorphan O-demethylation (DEXOD), and 250 nm for testosterone 6β-hydroxylation (TSTHY) and testosterone β-D-glucuronidation (TSTG).

[4] = NADPH-dependent phase I metabolic stability in mouse liver microsomes; type: in vitro ADME
Procedure: as §1, §2

[5] = tested on: hCAR-mediated CYP2B6 promoter; test: CAR-mediated CYP2B6 promoter luciferase assay in HepG2 cells; type: cell-based, human; settings: pcDNA3-CAR-transfected HepG2 cells, 24 h; CITCO 500 nM
Procedure: HepG2 cells (American Tissue Culture Collection, Manassas, VA, USA) were maintained in Dulbecco’s modified Eagle’s essential medium (DMEM), containing 10% fetal bovine serum, 1% nonessential amino acids, 1% GlutaMAX®, and 1% antibiotics/antimycotics at 37 °C in a 5% CO2 atmosphere. The expression plasmid encoding the human constitutive androstane receptor (hCAR; pcDNA3-CAR) and the pGL3-CYP2B6 luciferase construct were kindly provided by Dr. Hongbing Wang (University of Maryland, College Park, MD, USA). The plasmid encoding the human pregnane X receptor (hPXR; pcDNA3-PXR) and the pGL3-CYP3A4 luciferase construct were obtained from Dr. Masahiko Negishi at the National Institutes of Health (Bethesda, MD, USA). Cells were seeded at a density of 1.5 × 10^5 cells/well into a 24-well plate. The next day, the cells were transfected with 0.25 μg of either pcDNA3-CAR or pcDNA3-PXR and 0.25 μg of a promoter luciferase plasmid (either pGL3-CYP2B6 or pGL3-CYP3A4) using Lipofectamine 2000 (Invitrogen, Carlsbad, CA, USA) according to the manufacturer’s instructions. […] The cells were harvested and luciferase activity was measured as described previously.

CYP2C9, sequence (P11712 whole entry): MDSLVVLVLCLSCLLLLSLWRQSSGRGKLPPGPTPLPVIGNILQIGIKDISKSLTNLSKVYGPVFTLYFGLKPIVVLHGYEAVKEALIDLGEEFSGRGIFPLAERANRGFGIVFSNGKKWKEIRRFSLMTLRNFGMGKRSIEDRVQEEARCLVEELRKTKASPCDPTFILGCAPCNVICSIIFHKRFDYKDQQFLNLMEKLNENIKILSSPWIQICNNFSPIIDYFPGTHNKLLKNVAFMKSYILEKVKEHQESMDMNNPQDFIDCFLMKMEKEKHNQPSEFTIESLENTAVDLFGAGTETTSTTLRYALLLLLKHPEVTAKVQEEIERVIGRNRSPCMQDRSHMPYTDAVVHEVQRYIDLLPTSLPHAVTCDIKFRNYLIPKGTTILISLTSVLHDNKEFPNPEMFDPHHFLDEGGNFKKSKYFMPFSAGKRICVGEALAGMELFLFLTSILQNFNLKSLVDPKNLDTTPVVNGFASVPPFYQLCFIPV

- Amount Remaining at 30 min (%) ([1]; NADPH +): 0.0%
- Amount Remaining at 30 min (%) ([1]; NADPH −): 17.1%
- CLint scaled at 100 µM ([1]; pH 7.4, NADPH +): 557 mL/min/kg
- CLint scaled at 100 µM ([1]; pH 7.4, NADPH −): 287 mL/min/kg
- half-life at 100 µM ([1]; NADPH +): 2.2 min
- half-life at 100 µM ([1]; NADPH −): 4.4 min
- Amount Remaining at 30 min (%) ([2]; NADPH +): 0.0%
- Amount Remaining at 30 min (%) ([2]; NADPH −): 42.4%
- half-life at 100 µM ([2]; NADPH +): 5.8 min
- CLint scaled at 100 µM ([2]; NADPH +): 300 mL/min/kg
- half-life at 100 µM ([2]; NADPH −): 24.2 min
- CLint scaled at 100 µM ([2]; NADPH −): 71.4 mL/min/kg
- Amount Remaining at 30 min (%) ([3]; NADPH +): 54.9%
- Amount Remaining at 30 min (%) ([3]; NADPH −): 71.3%
- half-life at 100 µM ([3]; NADPH +): 25 min
- CLint scaled at 100 µM ([3]; NADPH +): 49.9 mL/min/kg
- half-life at 100 µM ([3]; NADPH −): > 30 min
- CLint scaled at 100 µM ([3]; NADPH −): < 41.6 mL/min/kg
- % Inhibition in Pre-Incubation (CYP2C9): 8.7 ± 1.4%
- Amount Remaining at 30 min (%) ([4]; mouse liver microsomes 1 mg/mL, SKN 100 μM): 4.90%
- amount of SKN remaining after 60 min of incubation ([4]; mouse liver microsomes, 60 min): 4.9%
- half-life at 100 µM ([4]; pH 7.4, mouse liver microsomes): 5.4 min
- CLint scaled at 100 µM ([4]; pH 7.4, mouse liver microsomes, read-out: CLint, hepatic): 565 mL/min/kg
- CYP2B6 luciferase activity increase [5]: not affected
SMILES: COc1cc(O)c2c(c1)OC(c1ccc(O)cc1)CC2=O (racemic) [SKN, (+/−) 7-O-methylnaringenin]
